Experimental data taken from ChEMBL document CHEMBL1201862, “PubChem BioAssay data set” (2004).
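Results reflect a 48-hour exposure of cells in 96-well plates to compound at five concentrations. GI50 marks 50% less growth.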 Activity calls are given as the source filed them. No stated cut-off is given here; in the data, active = GI50 up to about 1.1 µM and inactive = higher.

How the values were obtained:
Test in all cases: growth of human tumour cells (NCI), 48 h
[1] = tested on: 786-0
[2] = tested on: A549
[3] = tested on: ACHN
[4] = tested on: CAKI-1
[5] = tested on: CCRF-CEM
[6] = tested on: COLO 205
[7] = tested on: DLD-1
[8] = tested on: DMS-114
[9] = tested on: DMS-273
[10] = tested on: EKVX
[11] = tested on: HCC 2998
[12] = tested on: HCT-116
[13] = tested on: HCT-15
[14] = tested on: HL-60
[15] = tested on: HOP-18
[16] = tested on: HOP-62
[17] = tested on: HOP-92
[18] = tested on: HT-29
[19] = tested on: IGROV-1
[20] = tested on: K562
[21] = tested on: KM-20L2
[22] = tested on: KM12
[23] = tested on: LOX IMVI
[24] = tested on: LXFL 529
[25] = tested on: M14
[26] = tested on: M19-MEL
[27] = tested on: MOLT-4
[28] = tested on: Malme-3M
[29] = tested on: NCI-H226
[30] = tested on: NCI-H23
[31] = tested on: NCI-H460
[32] = tested on: NCI-H522
[33] = tested on: OVCAR-3
[34] = tested on: OVCAR-4
[35] = tested on: OVCAR-5
[36] = tested on: OVCAR-8
[37] = tested on: RPMI-8226
[38] = tested on: RXF 393
[39] = tested on: SF-268
[40] = tested on: SF-295
[41] = tested on: SF-539
[42] = tested on: SK-MEL-28
[43] = tested on: SK-MEL-2
[44] = tested on: SK-MEL-5
[45] = tested on: SK-OV-3
[46] = tested on: SNB-19
[47] = tested on: SNB-75
[48] = tested on: SNB-78
[49] = tested on: SR
[50] = tested on: SW-620
[51] = tested on: TK-10
[52] = tested on: U-251
[53] = tested on: UACC-257
[54] = tested on: UACC-62
[55] = tested on: UO-31
[56] = tested on: XF498
[57] = tested on: A498
[58] = tested on: BT-549
[59] = tested on: DU-145
[60] = tested on: Hs-578T
[61] = tested on: MCF7
[62] = tested on: MDA-MB-231
[63] = tested on: MDA-MB-435
[64] = tested on: MDA-N
[65] = tested on: NCI/ADR-RES
[66] = tested on: PC-3
[67] = tested on: SN12C

Measured: GI50

COC(=O)C(=C\Sc1ccccc1)/C=C/C(=O)OC(C)(C)C
6.67 µM: [13]
inactive: [1] 5.27 µM | [2] 18.3 µM | [3] 7.23 µM | [4] 3.87 µM | [5] 1.89 µM | [6] 5.3 µM | [7] 2.62 µM | [8] 11.2 µM | [9] 11.9 µM | [10] 10.6 µM | [11] 10.1 µM | [12] 8.47 µM | [14] 1.48 µM | [15] 16.2 µM | [16] 19.5 µM | [17] 4.4 µM | [18] 16.5 µM | [19] 13.1 µM | [20] 3.01 µM | [21] 17.1 µM | [22] 11.4 µM | [23] 8.32 µM | [24] 3.5 µM | [25] 7.78 µM | [26] 10.8 µM | [27] 2.84 µM | [28] 15.9 µM | [29] 15.6 µM | [30] 17.1 µM | [31] 17.7 µM | [32] 5.07 µM | [33] 5.25 µM | [34] 15 µM | [35] 15.4 µM | [36] 15.3 µM | [37] 3.06 µM | [38] 2.69 µM | [39] 14.9 µM | [40] 17.4 µM | [41] 13.6 µM | [42] 13.4 µM | [43] 12 µM | [44] 15 µM | [45] 24 µM | [46] 4.08 µM | [47] 14 µM | [48] 15.1 µM | [49] 2.87 µM | [50] 3.8 µM | [51] 17.1 µM | [52] 14.5 µM | [53] 13.5 µM | [54] 15.3 µM | [55] 16 µM | [56] 15 µM

C#CCNC(=O)NC(CCCCNC(=O)OCc1ccccc1)C(=O)OCc1ccccc1 (configuration not stated)
inactive: [1] > 95.7 µM | [57] 21.9 µM | [2] > 77.6 µM | [3] 40.1 µM | [58] > 100 µM | [4] > 74 µM | [5] 49.8 µM | [6] 21.7 µM | [7] > 100 µM | [8] 40.7 µM | [9] > 100 µM | [59] > 100 µM | [10] > 100 µM | [11] 31.5 µM | [12] > 100 µM | [14] 16 µM | [15] 23 µM | [16] > 100 µM | [17] 18.7 µM | [18] > 56.2 µM | [60] > 100 µM | [19] > 100 µM | [20] 53.6 µM | [21] > 100 µM | [22] 99.8 µM | [23] 33.7 µM | [24] > 100 µM | [25] 22.7 µM | [26] 11.3 µM | [61] > 100 µM | [62] > 39.2 µM | [63] 22.8 µM | [64] 32.9 µM | [27] 31 µM | [28] 24.2 µM | [29] 41.6 µM | [30] 76.2 µM | [31] 93.5 µM | [32] 6.64 µM | [65] > 100 µM | [33] 62.2 µM | [34] > 100 µM | [35] > 100 µM | [36] 95.1 µM | [66] > 67 µM | [37] 26.7 µM | [38] 10.8 µM | [39] 67.6 µM | [40] > 61 µM | [41] 38.9 µM | [42] 17.7 µM | [43] 16.6 µM | [44] 18.3 µM | [45] > 100 µM | [67] 37.4 µM | [46] > 100 µM | [47] 16.2 µM | [48] 23.9 µM | [49] 34.8 µM | [50] > 100 µM | [51] 37.6 µM | [52] > 72.1 µM | [53] 19.7 µM | [54] 12.7 µM | [55] 21.6 µM | [56] 19.3 µM
> 100 µM: [13]

COc1cc(CNc2cnc3cc(N)ccc3n2)cc(OC)c1OC
inactive: [1] 43.7 µM | [57] 26.5 µM | [2] 44.6 µM | [3] 66.1 µM | [4] 34.7 µM | [5] 31.4 µM | [6] 22.4 µM | [7] 58.1 µM | [8] 18.8 µM | [10] 76.7 µM | [11] 35.1 µM | [12] 18.7 µM | [14] 7.21 µM | [15] 78.5 µM | [16] 51.4 µM | [17] 58.5 µM | [18] 16.9 µM | [19] 39.3 µM | [20] 5.53 µM | [21] 14 µM | [22] 66.4 µM | [23] 23.9 µM | [24] 34.9 µM | [25] 16.4 µM | [26] 16.5 µM | [27] 15.9 µM | [28] 52.5 µM | [30] 28.5 µM | [31] 30.8 µM | [32] 18.8 µM | [33] 12.6 µM | [34] > 100 µM | [35] 68.2 µM | [36] 37.4 µM | [39] > 100 µM | [40] 17.3 µM | [41] 19.4 µM | [42] > 100 µM | [43] 1.14 µM | [44] 14.9 µM | [45] 20.7 µM | [67] 54.5 µM | [46] 34.8 µM | [47] 31.6 µM | [49] 5.65 µM | [50] 20 µM | [51] 64.9 µM | [52] 29.2 µM | [53] > 100 µM | [54] 12.7 µM | [55] 36.8 µM | [56] 22.6 µM
23 µM: [13]
active: [9] 0.191 µM
